In ChEMBL document CHEMBL5046279, “Discovery of a Partial Glucokinase Activator Clinical Candidate: Diethyl ((3-(3-((5-(Azetidine-1-carbonyl)pyrazin-2-yl)oxy)-5-isopropoxybenzamido)-1H-pyrazol-1-yl)methyl)phosphonate (BMS-820132)” (J Med Chem, 2022):
≈ marks a conversion by molar mass, not a printed value.

Columns and labels:
[1] = Cmax in Beagle dog at 3 mg/kg, po measured upto 24 hrs; assay type: ADME, organism-based, Canis lupus familiaris; set-up: route oral, dose 3 mg/kg, time <=24; details: in vivo
[2] = target: Voltage-gated inwardly rectifying potassium channel KCNH2 (Homo sapiens, UniProt Q12809); assay: Inhibition of hERG by patch clamp method; assay type: toxicity
Chain of Voltage-gated inwardly rectifying potassium channel KCNH2 (Q12809 whole entry): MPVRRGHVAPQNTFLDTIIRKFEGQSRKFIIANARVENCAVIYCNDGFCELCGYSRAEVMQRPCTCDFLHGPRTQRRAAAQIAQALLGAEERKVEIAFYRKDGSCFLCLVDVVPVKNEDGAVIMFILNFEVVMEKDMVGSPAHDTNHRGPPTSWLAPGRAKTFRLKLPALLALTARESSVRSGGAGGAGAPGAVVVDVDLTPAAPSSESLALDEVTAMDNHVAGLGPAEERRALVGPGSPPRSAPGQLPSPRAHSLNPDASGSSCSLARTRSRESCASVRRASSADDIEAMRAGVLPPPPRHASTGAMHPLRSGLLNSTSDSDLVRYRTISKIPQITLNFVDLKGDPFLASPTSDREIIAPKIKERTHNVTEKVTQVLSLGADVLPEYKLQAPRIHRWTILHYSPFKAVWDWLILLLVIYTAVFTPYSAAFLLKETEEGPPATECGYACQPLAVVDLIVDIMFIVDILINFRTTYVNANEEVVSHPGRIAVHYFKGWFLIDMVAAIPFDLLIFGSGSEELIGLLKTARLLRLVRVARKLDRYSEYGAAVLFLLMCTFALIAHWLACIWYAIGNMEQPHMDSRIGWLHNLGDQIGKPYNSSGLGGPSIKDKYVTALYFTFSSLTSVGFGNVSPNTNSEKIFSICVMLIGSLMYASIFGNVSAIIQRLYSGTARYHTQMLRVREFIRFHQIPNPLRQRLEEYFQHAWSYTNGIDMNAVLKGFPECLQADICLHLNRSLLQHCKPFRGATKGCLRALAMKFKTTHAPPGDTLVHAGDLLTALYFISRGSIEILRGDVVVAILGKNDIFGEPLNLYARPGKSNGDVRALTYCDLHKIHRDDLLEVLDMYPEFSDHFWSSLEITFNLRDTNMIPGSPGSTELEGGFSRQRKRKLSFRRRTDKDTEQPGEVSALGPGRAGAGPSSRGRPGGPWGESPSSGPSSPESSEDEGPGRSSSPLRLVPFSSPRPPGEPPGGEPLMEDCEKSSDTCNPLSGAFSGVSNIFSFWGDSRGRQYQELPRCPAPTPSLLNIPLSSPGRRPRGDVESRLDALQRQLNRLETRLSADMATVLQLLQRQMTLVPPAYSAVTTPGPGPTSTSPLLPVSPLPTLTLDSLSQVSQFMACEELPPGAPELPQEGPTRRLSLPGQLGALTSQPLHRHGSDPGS

[3] = Tmax in CD1 mouse at 5 mg/kg, po measured upto 24 hrs by LC-MS/MS analysis; assay type: ADME, organism-based; details: in vivo
[4] = Permeability of compound at pH >= 5.5 by PAMPA assay; assay type: ADME; details: read-out: permeability
Mus musculus [5] = assay: Anti-hyperglycemic activity in C57BL/6J DIO mouse assessed as reduction in plasma glucose AUC at 30 umol/kg, po measured after 120 mins by OGTT; assay type: functional; set-up: scale not given: the % may be the effect or the level left; details: dose 30 µM/Kg, 2 h, at 30 µmol/kg
[6] = Volume of distribution at steady state in CD1 mouse at 2.5 mg/kg, iv measured upto 24 hrs by LC-MS/MS analysis; assay type: ADME, organism-based; details: in vivo, read-out: Vdss
hERG (KCNH2) = hERG (KCNH2) (Homo sapiens, UniProt Q12809); assay: Inhibition of hERG channel at 30 uM by patch clamp assay relative to control; assay type: toxicity
Chain of hERG (KCNH2) (Q12809 whole entry): as above

[7] = Oral bioavailability in CD1 mouse at 5 mg/kg measured upto 24 hrs by LC-MS/MS analysis; assay type: ADME, organism-based; details: in vivo
Salmonella typhimurium [8] = assay: Mutagenicity in Salmonella typhimurium TA98 at 5000 ug/plate in presence of S9 fraction by Ames test; assay type: toxicity, organism-based; details: salmonella enterica subsp. enterica serovar typhimurium, dose 5000 µg
Mus musculus [9] = assay: Anti-hyperglycemic activity in C57BL/6J DIO mouse assessed as reduction in plasma glucose level at 3 umol/kg measured at 1 hr post dose on day 1 by OGTT; assay type: functional; set-up: scale not given: the % may be the effect or the level left; details: dose 3 µM/Kg, at 3 µmol/kg
[10] = Microsomal stability in human liver microsomes assessed as parent compound remaining at 0.5 uM measured after 10 mins in presence of NADPH; assay type: ADME, Microsome; details: read-out: Stability
[11] = Protein binding in mouse serum; assay type: ADME, cell-free; details: pooled result: one value given for 5 cell lines, strains, targets or settings, read-out: PB (converted)
L-type calcium channel = assay: Inhibition of L-type calcium channel (unknown origin) at 10 uM by patch clamp assay relative to control; assay type: toxicity; details: human
[12] = Cmax in CD1 mouse at 5 mg/kg, po measured upto 24 hrs by LC-MS/MS analysis; assay type: ADME, organism-based; set-up: route oral, dose 5 mg/kg, time <=24; details: in vivo
[13] = AUC (0 to 24 hrs) in cynomolgus monkey at 3 mg/kg, iv measured upto 24 hrs; assay type: ADME, organism-based, Macaca fascicularis; set-up: route intravenous, dose 3 mg/kg, time <=24; details: in vivo
[14] = Systemic plasma clearance in Sprague-Dawley rat at 2.5 mg/kg, iv measured upto 24 hrs by LC-MS/MS analysis; assay type: ADME, organism-based
Escherichia coli [15] = assay: Mutagenicity in Escherichia coli WP2 uvrA at 5000 ug/plate in presence of S9 fraction by Ames test; assay type: toxicity, organism-based; details: dose 5000 µg
Salmonella typhimurium [16] = assay: Mutagenicity in Salmonella typhimurium TA1535 at 5000 ug/plate in presence of S9 fraction by Ames test; assay type: toxicity, organism-based; details: salmonella enterica subsp. enterica serovar typhimurium, dose 5000 µg
[17] = Systemic plasma clearance in CD1 mouse at 2.5 mg/kg, iv measured upto 24 hrs by LC-MS/MS analysis; assay type: ADME, organism-based
Mus musculus [18] = assay: Anti-hyperglycemic activity in C57BL/6J DIO mouse assessed as reduction in plasma glucose level at 30 umol/kg measured after 14 days; assay type: functional; set-up: scale not given: the % may be the effect or the level left; details: dose 30 µM/Kg; time 14 day; at 30 µmol/kg
[19] = AUC (0 to 24 hrs) in Beagle dog at 3 mg/kg, iv measured upto 24 hrs; assay type: ADME, organism-based, Canis lupus familiaris; set-up: route intravenous, dose 3 mg/kg, time <=24; details: in vivo
Salmonella typhimurium [20] = assay: Mutagenicity in Salmonella typhimurium TA1537 at 5000 ug/plate in presence of S9 fraction by Ames test; assay type: toxicity, organism-based; details: salmonella enterica subsp. enterica serovar typhimurium, dose 5000 µg
[21] = AUC (0 to 24 hrs) in Sprague-Dawley rat at 5 mg/kg, po measured upto 24 hrs by LC-MS/MS analysis; assay type: ADME, organism-based; set-up: route oral, dose 5 mg/kg, time <=24; details: in vivo
[22] = Oral bioavailability in cynomolgus monkey at 3 mg/kg measured upto 24 hrs; assay type: ADME, organism-based, Macaca fascicularis; details: in vivo
[23] = Half life in cynomolgus monkey at 3 mg/kg, iv measured upto 24 hrs; assay type: ADME, organism-based, Macaca fascicularis; details: in vivo
Salmonella typhimurium [24] = assay: Mutagenicity in Salmonella typhimurium TA1537 at 5000 ug/plate in absence of S9 fraction by Ames test; assay type: toxicity, organism-based; details: salmonella enterica subsp. enterica serovar typhimurium; dose 5000 µg
Escherichia coli [25] = assay: Mutagenicity in Escherichia coli WP2 uvrA at 5000 ug/plate in absence of S9 fraction by Ames test; assay type: toxicity, organism-based
Salmonella typhimurium [26] = assay: Mutagenicity in Salmonella typhimurium TA100 at 5000 ug/plate in absence of S9 fraction by Ames test; assay type: toxicity, organism-based; details: salmonella enterica subsp. enterica serovar typhimurium; dose 5000 µg
[27] = target: ATP-dependent translocase ABCB1 (Homo sapiens, UniProt P08183); assay: Inhibition of P-gp transporter (unknown origin)
Chain of ATP-dependent translocase ABCB1 (P08183 whole entry): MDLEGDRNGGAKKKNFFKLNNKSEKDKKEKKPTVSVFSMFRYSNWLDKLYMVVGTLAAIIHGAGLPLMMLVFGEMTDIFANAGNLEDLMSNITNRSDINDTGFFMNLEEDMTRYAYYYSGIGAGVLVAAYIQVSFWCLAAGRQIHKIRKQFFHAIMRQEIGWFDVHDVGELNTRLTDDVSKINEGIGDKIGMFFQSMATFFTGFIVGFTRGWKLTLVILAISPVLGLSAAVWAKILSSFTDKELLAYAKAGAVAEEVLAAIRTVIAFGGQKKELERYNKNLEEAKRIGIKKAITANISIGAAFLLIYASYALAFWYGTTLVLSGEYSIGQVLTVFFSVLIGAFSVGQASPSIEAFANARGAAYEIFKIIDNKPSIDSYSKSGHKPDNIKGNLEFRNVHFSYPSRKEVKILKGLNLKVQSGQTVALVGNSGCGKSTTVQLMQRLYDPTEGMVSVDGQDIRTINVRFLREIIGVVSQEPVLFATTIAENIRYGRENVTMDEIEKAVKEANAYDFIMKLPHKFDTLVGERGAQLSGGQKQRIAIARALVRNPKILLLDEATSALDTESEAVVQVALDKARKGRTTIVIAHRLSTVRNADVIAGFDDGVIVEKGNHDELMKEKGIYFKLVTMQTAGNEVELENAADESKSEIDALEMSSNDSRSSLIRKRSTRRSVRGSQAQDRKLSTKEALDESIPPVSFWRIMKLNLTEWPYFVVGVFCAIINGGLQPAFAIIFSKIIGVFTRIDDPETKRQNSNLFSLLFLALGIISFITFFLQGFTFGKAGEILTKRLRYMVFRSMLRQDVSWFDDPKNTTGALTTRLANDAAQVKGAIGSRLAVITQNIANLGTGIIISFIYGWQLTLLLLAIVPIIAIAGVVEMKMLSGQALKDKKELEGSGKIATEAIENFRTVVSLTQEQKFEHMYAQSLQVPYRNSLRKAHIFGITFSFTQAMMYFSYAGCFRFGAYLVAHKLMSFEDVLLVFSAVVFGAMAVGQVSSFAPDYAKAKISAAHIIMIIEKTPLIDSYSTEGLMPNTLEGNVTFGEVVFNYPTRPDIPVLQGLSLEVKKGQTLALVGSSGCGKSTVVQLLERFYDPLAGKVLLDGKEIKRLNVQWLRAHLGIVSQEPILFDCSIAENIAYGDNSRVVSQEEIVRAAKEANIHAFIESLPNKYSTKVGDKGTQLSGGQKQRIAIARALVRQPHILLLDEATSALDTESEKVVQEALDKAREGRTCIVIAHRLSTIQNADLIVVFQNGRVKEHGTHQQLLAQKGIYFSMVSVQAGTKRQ

Mus musculus [28] = assay: Anti-hyperglycemic activity in C57BL/6J DIO mouse assessed as reduction in plasma glucose AUC at 1 umol/kg incubated for 120 mins by OGTT; assay type: functional; set-up: scale not given: the % may be the effect or the level left; details: dose 1 µM/Kg, 2 h, at 1 µmol/kg
[29] = Aqueous solubility of the compound at pH 6.5 using amorphous form of sample; assay type: physicochemical; details: aqueous solution
[30] = Tmax in Sprague-Dawley rat at 5 mg/kg, po measured upto 24 hrs by LC-MS/MS analysis; assay type: ADME, organism-based; details: in vivo
sodium channel = assay: Inhibition of sodium channel (unknown origin) at 1 Hz at 10 uM by patch clamp assay relative to control; assay type: toxicity; details: human
[31] = Cmax in Sprague-Dawley rat at 5 mg/kg, po measured upto 24 hrs by LC-MS/MS analysis; assay type: ADME, organism-based; set-up: route oral, dose 5 mg/kg, time <=24; details: in vivo
Mus musculus [32] = assay: Anti-hyperglycemic activity in C57BL/6J DIO mouse assessed as reduction in plasma glucose level at 30 umol/kg measured at 1 hr post dose on day 1 by OGTT; assay type: functional; set-up: scale not given: the % may be the effect or the level left; details: dose 30 µM/Kg, at 30 µmol/kg
[33] = Oral bioavailability in Beagle dog at 3 mg/kg measured upto 24 hrs; assay type: ADME, organism-based, Canis lupus familiaris; details: in vivo
[34] = target: T1, Nuclear receptor subfamily 1 group I member 2 (Homo sapiens, UniProt O75469); assay: Induction of human PXR upto 50 uM
T1 sequence (O75469 whole entry): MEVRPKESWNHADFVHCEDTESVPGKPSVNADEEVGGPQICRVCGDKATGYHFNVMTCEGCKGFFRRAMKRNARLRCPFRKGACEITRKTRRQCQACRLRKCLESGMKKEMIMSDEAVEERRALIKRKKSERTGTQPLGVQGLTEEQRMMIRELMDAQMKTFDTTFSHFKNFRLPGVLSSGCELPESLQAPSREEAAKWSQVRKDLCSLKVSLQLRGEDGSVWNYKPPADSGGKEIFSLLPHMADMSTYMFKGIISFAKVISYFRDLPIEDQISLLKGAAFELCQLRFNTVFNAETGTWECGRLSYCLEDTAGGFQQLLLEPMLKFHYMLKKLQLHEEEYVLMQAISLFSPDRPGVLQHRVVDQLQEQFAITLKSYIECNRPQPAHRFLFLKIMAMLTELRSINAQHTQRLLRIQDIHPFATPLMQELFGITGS

[35] = Half life in CD1 mouse at 2.5 mg/kg, iv measured upto 24 hrs by LC-MS/MS analysis; assay type: ADME, organism-based; details: in vivo
[36] = Half life in Sprague-Dawley rat at 2.5 mg/kg, po measured upto 24 hrs by LC-MS/MS analysis; assay type: ADME, organism-based; details: in vivo

Work on CCOP(=O)(Cn1ccc(NC(=O)c2cc(Oc3cnc(C(=O)N4CCC4)cn3)cc(OC(C)C)c2)n1)OCC yielded a Cmax [1] of 4.9 µM, an IC50 [2] greater than 80 µM and a Tmax [3] of 30 min. It also gave a Papp [4] greater than 40 ×10⁻⁶ cm/s, an Activity (Mus musculus [5]) of -59% and a Vd [6] of 0.3 L/kg. The inhibition at 30 µM (hERG (KCNH2)) was 29%, the bioavailability [7] was 100% and the Activity (Salmonella typhimurium [8]) was “Non-Toxic”. For the same compound, the Activity (Mus musculus [9]) was -32%, the remaining at 10 min, 0.5 µM [10] was 96% and the fraction unbound [11] was 0.168. For the same compound, the inhibition at 10 µM (L-type calcium channel) was 13%, the Cmax [12] was 14.1 µM and the AUC(0-t) [13] was 3.8 µM·h. For the same compound, the clearance [14] was 4.4 mL/min/kg, the Activity (Escherichia coli [15]) was “Non-Toxic” and the Activity (Salmonella typhimurium [16]) was “Non-Toxic”. For the same compound, the clearance [17] was 2.9 mL/min/kg, the Activity (Mus musculus [18]) was -63% and the AUC(0-t) [19] was 12.3 µM·h. For the same compound, the Activity (Salmonella typhimurium [20]) was “Non-Toxic”, the AUC(0-t) [21] was 29.5 µM·h and the bioavailability [22] was 15%. The half-life [23] was 114 min, the Activity (Salmonella typhimurium [24]) was “Non-Toxic” and the Activity (Escherichia coli [25]) was “Non-Toxic”. The Activity (Salmonella typhimurium [26]) was “Non-Toxic”, the IC50 [27] was 55 µM and the Activity (Mus musculus [28]) was -28%. It also gave a solubility [29] of 10 µg/mL (≈ 17.5 µM), a Tmax [30] of 54 min and an inhibition at 10 µM (sodium channel) of 9%. The Cmax [31] was 13 µM, the Activity (Mus musculus [32]) was -46% and the bioavailability [33] was 66%. The Activity [34] was “Not Active”, the half-life [35] was 126 min and the half-life [36] was 54 min.
